Test results as given in patent US10898475B2, “Bach1 inhibitors in combination with Nrf2 activators and pharmaceutical compositions thereof” (vTv Therapeutics LLC, priority 2014, dated 2021).
Each block holds one molecule with its values, some of them ahead of it.

System: HMOX1 in Normal Human Lung Fibroblasts (NHLF)
Assay: HMOX1 Protein Expression (immunostaining, fold induction or % positive cells over DMSO)
Settings: for Hill slope of DMF dose response curves in Table 2: % Positive HMOX
[1] = Homo sapiens, Fibroblast, read-out: Fold Induction of HMOX

SMILES: COC(=O)[C@]12CCC(C)(C)C[C@H]1[C@H]1C(=O)C=C3[C@@]4(C)C=C(C#N)C(=O)C(C)(C)[C@@H]4CC[C@@]3(C)[C@]1(C)CC2 [Bardoxolone Methyl, methyl 2-cyano-3,12-dioxooleana-1,9(11)dien-28-oate, reference compound]
increase HMOX1 (FIG. 1 bar B) (9.7 nM CDDO-Me alone): 2.5 fold
induction of HMOX1 protein (CDDO-Me alone, greater than or equal to 156 nM): 19 fold
fold induction at 0.0024 µM [1]: 1.31
fold induction at 0.0048 µM [1]: 1.59
fold induction at 0.0097 µM [1]: 2.53
fold induction at 0.019 µM [1]: 5
fold induction at 0.039 µM [1]: 8.48
fold induction at 0.078 µM [1]: 12.2
fold induction at 0.156 µM [1]: 19
fold induction at 0.312 µM [1]: 16.4

Fold Induction of HMOX (Cpd. 0.019 uM, DMF 0 uM): 1.29 fold
Fold Induction of HMOX (Cpd. 0.019 uM, DMF 0.03 uM): 1.10 fold
Fold Induction of HMOX (Cpd. 0.019 uM, DMF 0.1 uM): 1.15 fold
Fold Induction of HMOX (Cpd. 0.019 uM, DMF 0.3 uM): 1.24 fold
Fold Induction of HMOX (Cpd. 0.019 uM, DMF 1 uM): 1.68 fold
Fold Induction of HMOX (Cpd. 0.019 uM, DMF 3 uM): 2.86 fold
Fold Induction of HMOX (Cpd. 0.019 uM, DMF 10 uM): 5.75 fold
Fold Induction of HMOX (Cpd. 0.019 uM, DMF 30 uM): 4.65 fold
Fold Induction of HMOX (Cpd. 0.039 uM, DMF 0 uM): 1.37 fold
Fold Induction of HMOX (Cpd. 0.039 uM, DMF 0.03 uM): 1.28 fold
Fold Induction of HMOX (Cpd. 0.039 uM, DMF 0.1 uM): 1.35 fold
Fold Induction of HMOX (Cpd. 0.039 uM, DMF 0.3 uM): 1.61 fold
Fold Induction of HMOX (Cpd. 0.039 uM, DMF 1 uM): 2.10 fold
Fold Induction of HMOX (Cpd. 0.039 uM, DMF 3 uM): 3.01 fold
Fold Induction of HMOX (Cpd. 0.039 uM, DMF 10 uM): 5.13 fold
Fold Induction of HMOX (Cpd. 0.039 uM, DMF 30 uM): 4.90 fold
Fold Induction of HMOX (Cpd. 0.078 uM, DMF 0 uM): 1.59 fold
Fold Induction of HMOX (Cpd. 0.078 uM, DMF 0.03 uM): 1.37 fold
Fold Induction of HMOX (Cpd. 0.078 uM, DMF 0.1 uM): 1.48 fold
Fold Induction of HMOX (Cpd. 0.078 uM, DMF 0.3 uM): 1.73 fold
Fold Induction of HMOX (Cpd. 0.078 uM, DMF 1 uM): 2.53 fold
Fold Induction of HMOX (Cpd. 0.078 uM, DMF 3 uM): 4.33 fold
Fold Induction of HMOX (Cpd. 0.078 uM, DMF 10 uM): 6.46 fold
Fold Induction of HMOX (Cpd. 0.078 uM, DMF 30 uM): 6.18 fold
Fold Induction of HMOX (Cpd. 0.156 uM, DMF 0 uM): 2.66 fold
Fold Induction of HMOX (Cpd. 0.156 uM, DMF 0.03 uM): 1.99 fold
Fold Induction of HMOX (Cpd. 0.156 uM, DMF 0.1 uM): 2.54 fold
Fold Induction of HMOX (Cpd. 0.156 uM, DMF 0.3 uM): 3.06 fold
Fold Induction of HMOX (Cpd. 0.156 uM, DMF 1 uM): 4.08 fold
Fold Induction of HMOX (Cpd. 0.156 uM, DMF 3 uM): 4.57 fold
Fold Induction of HMOX (Cpd. 0.156 uM, DMF 10 uM): 6.55 fold
Fold Induction of HMOX (Cpd. 0.156 uM, DMF 30 uM): 5.49 fold
SMILES: CN(C)C(=O)CNC(=O)c1ccc2c(c1)nc(Nc1nc3ccc(C(F)(F)F)cc3s1)n2C [HPP-C, 1-Methyl-2-(6-trifluoromethyl-benzothiazol-2-ylamino)-1H-benzimidazole-5-carboxylic acid dimethylcarbamoylmethyl-amide]
Hill slope of DMF dose response curves in Table 2 (Bach1 Inhibitor Conc. 0.019 uM): 2.00
Hill slope of DMF dose response curves in Table 2 (Bach1 Inhibitor Conc. 0.039 uM): 1.80
Hill slope of DMF dose response curves in Table 2 (Bach1 Inhibitor Conc. 0.078 uM): 1.79
Hill slope of DMF dose response curves in Table 2 (Bach1 Inhibitor Conc. 0.156 uM): 0.83
% Cells Positive HMOX (Cpd. 0.019 uM, DMF 0 uM): 3.60%
% Cells Positive HMOX (Cpd. 0.019 uM, DMF 0.03 uM): 1.18%
% Cells Positive HMOX (Cpd. 0.019 uM, DMF 0.1 uM): 2.37%
% Cells Positive HMOX (Cpd. 0.019 uM, DMF 0.3 uM): 6.49%
% Cells Positive HMOX (Cpd. 0.019 uM, DMF 1 uM): 10.18%
% Cells Positive HMOX (Cpd. 0.019 uM, DMF 3 uM): 51.54%
% Cells Positive HMOX (Cpd. 0.019 uM, DMF 10 uM): 94.22%
% Cells Positive HMOX (Cpd. 0.019 uM, DMF 30 uM): 84.20%
% Cells Positive HMOX (Cpd. 0.039 uM, DMF 0 uM): 2.31%
% Cells Positive HMOX (Cpd. 0.039 uM, DMF 0.03 uM): 5.74%
% Cells Positive HMOX (Cpd. 0.039 uM, DMF 0.1 uM): 6.82%
% Cells Positive HMOX (Cpd. 0.039 uM, DMF 0.3 uM): 12.76%
% Cells Positive HMOX (Cpd. 0.039 uM, DMF 1 uM): 23.54%
% Cells Positive HMOX (Cpd. 0.039 uM, DMF 3 uM): 68.03%
% Cells Positive HMOX (Cpd. 0.039 uM, DMF 10 uM): 94.66%
% Cells Positive HMOX (Cpd. 0.039 uM, DMF 30 uM): 90.40%
% Cells Positive HMOX (Cpd. 0.078 uM, DMF 0 uM): 7.12%
% Cells Positive HMOX (Cpd. 0.078 uM, DMF 0.03 uM): 5.99%
% Cells Positive HMOX (Cpd. 0.078 uM, DMF 0.1 uM): 8.24%
% Cells Positive HMOX (Cpd. 0.078 uM, DMF 0.3 uM): 16.20%
% Cells Positive HMOX (Cpd. 0.078 uM, DMF 1 uM): 37.74%
% Cells Positive HMOX (Cpd. 0.078 uM, DMF 3 uM): 81.81%
% Cells Positive HMOX (Cpd. 0.078 uM, DMF 10 uM): 97.16%
% Cells Positive HMOX (Cpd. 0.078 uM, DMF 30 uM): 96.15%
% Cells Positive HMOX (Cpd. 0.156 uM, DMF 0 uM): 28.56%
% Cells Positive HMOX (Cpd. 0.156 uM, DMF 0.03 uM): 22.08%
% Cells Positive HMOX (Cpd. 0.156 uM, DMF 0.1 uM): 33.12%
% Cells Positive HMOX (Cpd. 0.156 uM, DMF 0.3 uM): 49.95%
% Cells Positive HMOX (Cpd. 0.156 uM, DMF 1 uM): 66.67%
% Cells Positive HMOX (Cpd. 0.156 uM, DMF 3 uM): 88.98%
% Cells Positive HMOX (Cpd. 0.156 uM, DMF 10 uM): 100.00%
% Cells Positive HMOX (Cpd. 0.156 uM, DMF 30 uM): 84.03%
combination effect in terms of the % HMOX positive cells (combination with DMF at concentrations below their maximum effect (Table 2)): additive or greater than additive
change of Hill slope of the DMF dose response curve (FIG. 5) (upon increasing amounts of the Bach1 Inhibitor): reduced
